IC50 data for ten compounds are collected here from patent US11453647B2, “Benzimidazole derivatives as adenosine receptor antagonists” (Merck Patent GmbH, priority 2017, dated 2022).

Molecules are shown by their SMILES.

Type in all cases: cell-based
One assay has as its target T1, human A1 receptor (Homo sapiens, UniProt P30542).
T1 construct: expressed in transfected cells; host or cells: CHO
T1 sequence (P30542 1-326): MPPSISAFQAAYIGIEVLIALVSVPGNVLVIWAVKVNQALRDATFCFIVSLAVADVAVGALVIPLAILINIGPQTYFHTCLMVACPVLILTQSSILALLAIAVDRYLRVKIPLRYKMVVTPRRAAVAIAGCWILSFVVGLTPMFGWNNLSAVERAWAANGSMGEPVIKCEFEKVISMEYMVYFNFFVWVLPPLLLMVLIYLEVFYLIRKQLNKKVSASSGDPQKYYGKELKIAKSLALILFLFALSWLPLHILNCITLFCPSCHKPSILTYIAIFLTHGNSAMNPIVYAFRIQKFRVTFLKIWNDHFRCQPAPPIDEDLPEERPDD
As to the kind of experiment: functional cAMP (HTRF) assay, recombinant CHO cells expressing human A1 receptor, forskolin, agonist CPA. An outline of the steps: (§1)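 Recombinant CHO cells expressing A1 or A3 receptor (Gi-coupled) were stimulated with forskolin together with test compound and agonist (CPA for A1, IB-MECA for A3), incubated 30 min, then cellular cAMP was read by HTRF. Data were normalized to inhibitor control and DMSO neutral control, then curve-fitted.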

The target of another assay is T2, human A3 receptor (Homo sapiens, UniProt P0DMS8).
T2 construct: expressed in transfected cells; host or cells: CHO
T2 sequence (P0DMS8 1-318): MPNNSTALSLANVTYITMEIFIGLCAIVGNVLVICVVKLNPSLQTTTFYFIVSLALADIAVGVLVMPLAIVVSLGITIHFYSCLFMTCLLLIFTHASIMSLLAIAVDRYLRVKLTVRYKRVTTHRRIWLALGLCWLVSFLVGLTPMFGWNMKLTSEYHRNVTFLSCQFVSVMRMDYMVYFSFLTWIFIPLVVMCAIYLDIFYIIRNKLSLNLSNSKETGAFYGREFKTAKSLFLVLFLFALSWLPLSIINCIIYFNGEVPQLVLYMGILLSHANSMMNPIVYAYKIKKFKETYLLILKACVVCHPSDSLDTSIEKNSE
Description: functional cAMP (HTRF) assay, recombinant CHO cells expressing human A3 receptor, forskolin, agonist IB-MECA. The method in brief:
as §1
A general note: TR-FRET usually uses a lanthanide donor and a delayed reading to cut background.

In a further assay the target is T3, human A2A receptor (Homo sapiens, UniProt P29274).
T3 construct: expressed in transfected cells; host or cells: HEK293
T3 sequence (P29274 whole entry): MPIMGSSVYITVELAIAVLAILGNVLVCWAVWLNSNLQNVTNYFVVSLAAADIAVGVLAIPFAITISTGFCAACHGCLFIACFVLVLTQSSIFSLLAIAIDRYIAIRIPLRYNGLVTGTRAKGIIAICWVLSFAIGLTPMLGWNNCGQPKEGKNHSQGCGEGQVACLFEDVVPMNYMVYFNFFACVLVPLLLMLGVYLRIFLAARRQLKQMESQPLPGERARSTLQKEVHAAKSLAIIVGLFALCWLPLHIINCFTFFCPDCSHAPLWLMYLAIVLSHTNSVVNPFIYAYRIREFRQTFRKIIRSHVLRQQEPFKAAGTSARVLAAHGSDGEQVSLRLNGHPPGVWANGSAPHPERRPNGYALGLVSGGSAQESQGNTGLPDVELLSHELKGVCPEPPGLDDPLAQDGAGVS
As to the kind of experiment: functional cAMP (HTRF) assay, recombinant HEK293 cells expressing human A2A receptor, agonist NECA.

A further assay concerns the target T4, A2B receptors (Homo sapiens, UniProt P29275).
T4 sequence (P29275 1-332): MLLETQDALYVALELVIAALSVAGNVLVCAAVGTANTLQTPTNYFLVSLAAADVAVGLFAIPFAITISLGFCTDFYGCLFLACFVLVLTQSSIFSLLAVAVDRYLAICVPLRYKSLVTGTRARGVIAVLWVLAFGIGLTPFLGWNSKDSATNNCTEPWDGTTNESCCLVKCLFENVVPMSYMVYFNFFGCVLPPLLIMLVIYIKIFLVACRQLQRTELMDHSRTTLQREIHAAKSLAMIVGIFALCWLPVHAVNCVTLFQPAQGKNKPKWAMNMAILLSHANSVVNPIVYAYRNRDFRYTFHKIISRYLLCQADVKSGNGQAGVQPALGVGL
As to the kind of experiment: functional cAMP (HTRF) assay, recombinant HEK293 cells expressing human A2B receptor, agonist NECA. Also noted: expressed in transfected cells; host or cells: HEK293.

As a reminder, the IC50 is the concentration that gives 50% inhibition. With `COc1ccc(-c2ccccc2)c2nc(NC(=O)c3c[nH]c(C)n3)[nH]c12` [compound 255, N-(7-methoxy-4-phenyl-1H-1,3-benzodiazol-2-yl)-2-methyl-1H-imidazole-4-carboxamide], the IC50 is below 1000 nM on human A1 receptor, below 1000 nM on human A3 receptor, below 10 nM on human A2A receptor and below 10 nM at A2B receptors.

Consider `COc1ccc(-c2cnn(C)c2)c2nc(NC(=O)c3cnc(C)s3)[nH]c12` [compound 165, N-[7-methoxy-4-(1-methyl-1H-pyrazol-4-yl)-1H-1,3-benzodiazol-2-yl]-2-methyl-1,3-thiazole-5-carboxamide], for which the IC50 is below 1000 nM on human A1 receptor, below 10 nM on human A3 receptor, below 10 nM at human A2A receptor and below 1000 nM on A2B receptors.

As for `COc1ccc(-c2ccccc2)c2nc(NC(=O)c3cn(C)nc3C)[nH]c12` [compound 269, N-(7-methoxy-4-phenyl-1H-1,3-benzodiazol-2-yl)-1,3-dimethyl-1H-pyrazole-4-carboxamide], the IC50 was above 1000 nM at human A1 receptor, below 1000 nM at human A3 receptor, below 100 nM at human A2A receptor and below 100 nM at A2B receptors.

Regarding `COc1ccc(-c2cnn(C)c2)c2nc(NC(=O)c3ccc(CN4CCN(C)CC4)cc3)[nH]c12` [compound 168, N-[7-methoxy-4-(1-methyl-1H-pyrazol-4-yl)-1H-1,3-benzodiazol-2-yl]-4-[(4-methylpiperazin-1-yl)methyl]benzamide], the IC50 on human A1 receptor is above 1000 nM; at human A3 receptor, below 1000 nM; on human A2A receptor, below 10 nM; on A2B receptors it was above 1000 nM.

Take `COCCOc1cccc(-c2ccc(OC)c3nc(NC(=O)N4CCC(C)(O)CC4)[nH]c23)c1` [compound 236, 4-hydroxy-N-{4-methoxy-7-[3-(2-methoxyethoxy)phenyl]-1H-1,3-benzodiazol-2-yl}-4-methylpiperidine-1-carboxamide]: the IC50 at human A1 receptor is below 1000 nM; on human A3 receptor it was below 1000 nM; at human A2A receptor, below 10 nM; at A2B receptors, below 100 nM.

As for `COCCn1cc(C(=O)Nc2nc3c(-c4cnn(C)c4)ccc(OC)c3[nH]2)cn1` [compound 161, N-[7-methoxy-4-(1-methyl-1H-pyrazol-4-yl)-1H-1,3-benzodiazol-2-yl]-1-(2-methoxyethyl)-1H-pyrazole-4-carboxamide], the IC50 at human A1 receptor is above 1000 nM; on human A3 receptor, below 1000 nM; on human A2A receptor, below 10 nM; on A2B receptors, below 1000 nM.

Turning to `COc1ccc(-c2ccccc2)c2[nH]c(NC(=O)c3ccc(C(=O)NCCO)cc3)nc12` [compound 312, N1-(2-hydroxyethyl)-N4-(4-methoxy-7-phenyl-1H-1,3-benzodiazol-2-yl)benzene-1,4-dicarboxamide], the IC50 at human A1 receptor was below 1000 nM; on human A3 receptor, below 1000 nM; on human A2A receptor, below 10 nM; at A2B receptors it was below 10 nM.

For `COc1ccc(-c2cccnc2)c2nc(NC(=O)C3CC3)[nH]c12` [compound 315, N-[7-methoxy-4-(pyridin-3-yl)-1H-1,3-benzodiazol-2-yl]cyclopropanecarboxamide], the IC50 is above 1000 nM at human A1 receptor, below 1000 nM at human A3 receptor, below 100 nM at human A2A receptor and below 100 nM on A2B receptors.

`COc1ccc(-c2cnn(C)c2)c2nc(NC(=O)c3ccc4occc4c3)[nH]c12` [compound 80, N-[7-methoxy-4-(1-methyl-1H-pyrazol-4-yl)-1H-1,3-benzodiazol-2-yl]-1-benzofuran-5-carboxamide]: the IC50 at human A1 receptor is above 1000 nM; at human A3 receptor, below 1000 nM; on human A2A receptor, below 100 nM; on A2B receptors, below 1000 nM.

Turning to `COc1ccc(-c2cnn(C)c2)c2nc(NC(=O)c3ccon3)[nH]c12` [compound 84, N-[7-methoxy-4-(1-methyl-1H-pyrazol-4-yl)-1H-1,3-benzodiazol-2-yl]-1,2-oxazole-3-carboxamide], the IC50 is below 1000 nM on human A1 receptor, below 1000 nM at human A3 receptor, below 100 nM on human A2A receptor and below 1000 nM at A2B receptors.
